In BindingDB's records for doi:10.1021/jm960794l (Institute of Cancer Research, 1997):

Assay: Cytotoxicity in T79-A3 (NR-positive) cell lines

Going from `NC(=O)c1cc(N2CC2)c([N+](=O)[O-])cc1[N+](=O)[O-]` to `NC(=O)c1cc(N(CCBr)CCBr)c([N+](=O)[O-])cc1[N+](=O)[O-]` [5-(bis(2-bromoethyl)amino)-2,4-dinitrobenzamide], the IC50 falls from 0.89 µM to 0.25 µM (3.6-fold). The second is the more potent here.

Going from `NC(=O)c1cc(N(CCCl)CCCl)c([N+](=O)[O-])cc1[N+](=O)[O-]` to `CS(=O)(=O)CCN(CCCl)c1cc(C(N)=O)c([N+](=O)[O-])cc1[N+](=O)[O-]` [5-[(2-Chloro-ethyl)-(2-methanesulfonyl-ethyl)-amino]-2,4-dinitro-benzamide], the IC50 falls from 15 µM to 3.4 µM (4.4-fold). The second is the more potent here.

Going from `NC(=O)c1cc([N+](=O)[O-])cc([N+](=O)[O-])c1N(CCBr)CCBr` [2-[Bis-(2-bromo-ethyl)-amino]-3,5-dinitro-benzamide] to `NC(=O)c1cc([N+](=O)[O-])cc([N+](=O)[O-])c1N(CCCl)CCCl` [2-[Bis-(2-chloro-ethyl)-amino]-3,5-dinitro-benzamide], the IC50 rises from 0.19 µM to 7.5 µM (39-fold).

Compared with `O=C(NCC(O)CO)c1cc([N+](=O)[O-])cc([N+](=O)[O-])c1N(CCCl)CCCl` (stereo unspecified) [2-[Bis-(2-chloro-ethyl)-amino]-N-(2,3-dihydroxy-propyl)-3,5-dinitro-benzamide], `O=C(NCC(O)CO)c1cc([N+](=O)[O-])cc([N+](=O)[O-])c1N(CCI)CCI` (stereo unspecified) [2-[Bis-(2-iodo-ethyl)-amino]-N-(2,3-dihydroxy-propyl)-3,5-dinitro-benzamide] is 3.2-fold lower in IC50: 13 µM for the first, 4 µM for the second. The second is the more potent here.

Compared with `NC(=O)c1cc([N+](=O)[O-])cc([N+](=O)[O-])c1N(CCI)CCI` [2-[Bis-(2-iodo-ethyl)-amino]-3,5-dinitro-benzamide], `NC(=O)c1cc(N(CCI)CCI)c([N+](=O)[O-])cc1[N+](=O)[O-]` [5-(bis(2-iodoethyl)amino)-2,4-dinitrobenzamide] is 2.3-fold higher in IC50: 0.1 µM for the first, 0.23 µM for the second. The first is the more potent here.

First: NC(=O)c1c([N+](=O)[O-])ccc(N(CCCl)CCCl)c1[N+](=O)[O-] [3-[Bis-(2-chloro-ethyl)-amino]-2,6-dinitro-benzamide]
Second: CN(C)CCNC(=O)c1c([N+](=O)[O-])ccc(N(CCCl)CCCl)c1[N+](=O)[O-] [3-[Bis-(2-chloro-ethyl)-amino]-N-(2-dimethylamino-ethyl)-2,6-dinitro-benzamide]
The IC50 of the first is higher: > 1000 µM for the first, 895 µM for the second.

Compared with `O=C(NCC(O)CO)c1cc(N(CCI)CCI)c([N+](=O)[O-])cc1[N+](=O)[O-]` (stereo unspecified) [5-(bis(2-iodoethyl)amino)-N-(2,3-dihydroxypropyl)-2,4-dinitrobenzamide], `O=C(NCC(O)CO)c1cc(N(CCCl)CCCl)c([N+](=O)[O-])cc1[N+](=O)[O-]` (stereo unspecified) [5-[Bis-(2-chloro-ethyl)-amino]-N-(2,3-dihydroxy-propyl)-2,4-dinitro-benzamide] is 47-fold higher in IC50: 1.9 µM for the first, 89 µM for the second. The first is the more potent here.

First: CS(=O)(=O)c1cc([N+](=O)[O-])c(C(N)=O)cc1N(CCCl)CCCl [5-[Bis-(2-chloro-ethyl)-amino]-4-methanesulfonyl-2-nitro-benzamide]
Second: CS(=O)(=O)CCN(CCS(C)(=O)=O)c1cc(C(N)=O)c([N+](=O)[O-])cc1[N+](=O)[O-] [5-[Bis-(2-methanesulfonyl-ethyl)-amino]-2,4-dinitro-benzamide]
The IC50 of the first is 6.2-fold higher: 58 µM for the first, 9.3 µM for the second. The second is the more potent here.
